Test results from paper PMC12705620 (Frontiers in Pharmacology, 2025).
Where “and” joins values, the source holds several entries; their conditions need not be identical. Identical values can stand only once. Like-named read-outs stand apart in the source and are kept apart here.

Assays:
[1] = system: HaCaT keratinocytes; assay: In vitro scratch wound assay; format: cell-based, human; settings: 1 µM peptide (TGF-β 20 ng/mL); for Percentage of wound closure: 60 h (legend: 64 h)
Procedure: Cell migration following injury was assessed using an in vitro scratch assay with the IncuCyte wound maker tool (Sartorius). HaCaT keratinocytes were seeded in 96-well ImageLock plates (Sartorius) at 3 × 10^5 cells/well (100 µL) in DMEM supplemented with 10% FBS and incubated at 37 °C, 5% CO2 for 48 h, with medium change at 24 h, until confluence. Uniform scratches were introduced using the wound maker tool according to the manufacturer’s instructions. After wounding, wells were washed twice with 100 µL PBS to remove cell debris. Cells were then treated with 1 µM peptides in serum-free DMEM, to focus specifically on cell migration from the wound edges. The absence of serum minimizes interference with peptide activity. Transforming growth factor-beta (TGF-β; human; 20 ng/mL; Sigma-Aldrich) and 5% dimethyl sulfoxide (DMSO; Sigma-Aldrich) were used as positive and negative controls, respectively. Additional controls included serum-free DMEM (no-treatment control) and 50% (v/v) acetonitrile in Milli-Q water as solvent control. Wound closure was monitored using the IncuCyte S3 live-cell imaging system (Sartorius) with bright-field microscopy. Images were captured every 6 h for up to 60 h. Image analysis was performed using ImageJ software (version 1.53t, NIH, USA) with the “Wound Healing” plugin, as described by Suarez Arnedo et al. ([Suarez-Arnedo et al., 2020]). Quantitative parameters included wound width (µm), percent wound closure, and migration rate (µm/hour).

[2] = system: S. aureus LUH14616 (MRSA); assay: Ex vivo human skin wound infection model; design: species or system Staphylococcus aureus; settings: 0.5% (v/v) in 70% ethanol, positive control, 4 h, p < 0.001
Text: Human skin from 3 donors was obtained via the Residual Tissue Biobank of the Red Cross Hospital (Beverwijk, Netherlands). The use of these coded, post-operative residual tissue samples was approved by patients through the informed opt-out-plus protocol of the Red Cross Hospital Skin ([Code-of-Conduct-for-Health-Research, 2022]) and processed for an ex vivo wound infection model as described ([Dijksteel et al., 2020]). The Wounded skin grafts were sectioned into approximately 1 cm^2 samples using a sterile scalpel and were decontaminated by immersion in 70% ethanol for 30 min, followed by three PBS washes. Samples were placed dermis-down and wound-side-up on stainless steel grids with central indentations, positioned in 12-well plates, and cultured at the air–liquid interface in DMEM at 37 °C and 5% CO2. To confine reagents to the wound area, a resin barrier (OpalDam; Ultradent) was applied to the wounded area and polymerized using a hand-held UV light (Valo X) for 10 s. The wounds were then topically infected with 10 µL of S. aureus LUH14616 suspension of 1 × 10^7 CFU/mL (final dose: 1 × 10^5 CFU/graft) in PBS for 1 h, followed by topical application of 10 µL of peptide solution for 4 h. Chlorhexidine (0.5% (v/v) in 70% ethanol; Entick B.V.) and PBS were used as positive and negative controls, respectively. After treatment, tissue samples were transferred to polypropylene vials containing 1 mL PBS supplemented with 0.025% (v/v) SPS and a 7 mm stainless steel bead. Homogenization was performed using a MagnaLyser System (Roche) with three 30-s cycles at 7,000 rpm, with 30 s of cooling on ice between cycles. Homogenates were 10-fold serially diluted in PBS, and 100 µL aliquots were plated on BA plates. CFUs were enumerated after overnight incubation at 37 °C.

[3] = system: Staphylococcus aureus JAR060131; format: cell-based
Procedure: (§1) Bactericidal activity was assessed as previously described ([Breij et al., 2018]). Briefly, mid-logarithmic phase bacterial cultures were diluted in RPMI to 1 × 10^7 CFU/mL. For fungicidal assays, fungal cultures were prepared in RPMI supplemented with 1% glucose (Merck) and diluted to 2–5 × 10^5 CFU/mL. For each condition, 10 µL of the suspension was added to 90 µL of peptide-containing RPMI or RPMI supplemented with 50% (v/v) pooled human plasma (hereafter referred to as 50% plasma; final bacterial concentration 1 × 10^6 CFU/mL, final fungal concentration 2–5 × 10^4 CFU/mL. Human plasma from four healthy volunteers (Sanquin, Netherlands) was pooled, and stored at −20 °C until use. Peptides were tested similarly for fungicidal activity, after 18 h of incubation at 37 °C with shaking (120 rpm) under humidified conditions, bacterial and fungal survival was determined by plating 10 µL aliquots onto BA plates. Assays were performed in duplicate in round-bottom polypropylene microtiter plates (Costar) and repeated independently three times. Untreated controls included bacteria exposed to RPMI alone or RPMI with 50% plasma. Bactericidal and fungicidal activity was expressed as the lethal concentration 99.9% (LC99.9), defined as the lowest peptide concentration causing ≥99.9% reduction in numbers of CFU compared to the initial inoculum.

[4] = system: human skin fibroblast cells (BJ); assay: Cytotoxicity (WST-1 and LDH); format: cell-based
Procedure: (§2) Cells (5 × 10^5 cells/mL) were seeded in 96-well plates (100 μL/well; Thermo Scientific) and allowed to adhere for 24 h. After adhesion, monolayers were exposed to two-fold serial dilutions of the tetrameric and reference peptides (final concentrations: 60–0.05 µM) in fresh DMEM containing 2% (v/v) FBS, and incubated for 24 h at 37 °C in a humidified 5% CO2 atmosphere. Cell viability was assessed using the water-soluble tetrazolium salt (WST-1; Roche) assay, and membrane integrity was measured using the lactate dehydrogenase (LDH) release assay (Abcam), following manufacturer instructions. Absorbance was measured using the Synergy H1 microplate reader (Biotek). Results are expressed as percentages relative to untreated control (for WST-1) and positive lysis control (for LDH) and all experiments were performed in triplicate.

[5] = system: HaCaT human keratinocytes; assay: Cytotoxicity (WST-1 and LDH); format: cell-based
Procedure: as §2

[6] = system: S. aureus RN4220 (mCherry) in dTHP-1 macrophages; assay: Intracellular bacterial killing in macrophages; format: cell-based, Staphylococcus aureus; settings: 24 h pre-treatment at 1 µM and 2 µM, MOI 2, CFU after lysis, versus no treatment
Procedure: Human monocytes (THP-1; TIB-202; ATCC) were cultured in RPMI 1,640 medium (Gibco) supplemented with 10% FBS. For differentiation into macrophage-like cells (dTHP-1), THP-1 monocytes were seeded in 96-well plates at 3 × 10^4 cells/well (100 µL) in RPMI supplemented with 50 ng/mL phorbol 12-myristate 13-acetate (PMA; Sigma-Aldrich), and incubated for 48 h. The protocol for intracellular killing was adapted from Tang et al. ([Tang et al., 2015]) with modifications. After differentiation, dTHP-1 cells were pre-treated with one or 2 µM peptide solutions in fresh RPMI for 24 h. Subsequently peptides were removed by washing three times with PBS. An mCherry-expressing S. aureus strain, prepared as described in Section 5.2, was used. This strain is efficiently internalized by macrophages ([Cuypers et al., 2024]). Bacteria were added to dTHP-1 cells at a multiplicity of infection (MOI) of 2:1 and incubated for 45 min at 37 °C with 5% CO2 for phagocytosis. Extracellular bacteria were then removed by washing the wells three times with 60 µL PBS, followed by a final wash with 200 µL PBS.dTHP-1 cells were either lysed immediately to quantify the number of intracellular bacteria, after phagocytosis (T = 0 h) or were incubated for 24 h (T = 24 h) in RPMI supplemented with 10 μg/mL gentamicin (Sigma-Aldrich) to inhibit extracellular bacterial growth (in both peptide-treated and control dTHP-1 cells). Internalized bacteria were quantified after lysing the cells with 0.025% Triton X-100 in PBS for 15 min. Lysates were serially diluted (both at 0 h and 24 h) and plated onto BA for CFU enumeration to assess intracellular bacterial survival.

[7] = system: Acinetobacter baumannii RUH875; format: cell-based; settings: 18 h, 37 °C, median of three independent experiments (Table 1)
Procedure: as §1

[8] = system: TNF-α production by unstimulated dTHP-1 macrophages; assay: TNFα induction by peptides alone in macrophages; format: cell-based, human; settings: 2 µM peptide, 4 h, no endotoxin stimulation, versus unstimulated cells
Procedure: The endotoxin-neutralizing capacity of the peptides was assessed by measuring tumor necrosis factor-alpha (TNF-α) production by dTHP-1 macrophages. dTHP-1 macrophages were stimulated with either lipopolysaccharide (LPS; E. coli O111:B4; 5 ng/mL, Sigma-Aldrich) or UV-inactivated S. aureus JAR060131 (MOI 2; as described in Section 5.2), in the presence or absence of one or 2 µM peptides. Cells were cultured in serum-free RPMI and incubated for 4 h at 37 °C with 5% CO2. Positive controls consisted of cells stimulated with LPS or UV-S. aureus without peptide treatment (no treatment, NT), and unstimulated cells served as negative controls. After stimulation, cell supernatants were collected, and cytokine levels of TNF-α were quantified using human ELISA kits (R&D Systems, USA) according to the manufacturer’s instructions. Each condition was tested in triplicate.

[9] = system: human erythrocytes; assay: Hemolytic activity; format: cell-based; settings: 45 min
Procedure: Whole blood was collected from healthy volunteers after obtaining informed consent, using Vacuette EDTA tubes (Greiner Bio-One). […] For hemolytic assessment, 180 μL of the prepared erythrocyte suspension was mixed with 20 μL of serially diluted peptide solutions (ranging from 60 to 0.03 μM in PBS).

[10] = 24 h exposure, DMEM 2% FBS, concentration causing >30% membrane permeation, triplicate
[11] = 24 h exposure, WST-1, concentration causing <70% metabolic activity, triplicate

**Q.** TGF-β was tested. Which “Percentage of wound closure” value ([1]; versus no treatment) did it give?
**A.** near-complete wound closure

**Q.** And the Wound width reduction ([1]; serum-free DMEM, versus untreated control)?
**A.** highest wound width reduction

**Q.** What about the “Rate of cell migration” value ([1]; versus no treatment) of the same molecule?
**A.** faster wound closure

**Q.** With `[H]/N=C(\N/C(=N/[H])NCCCCCCNC(=N)NC(=N)Nc1ccc(Cl)cc1)Nc1ccc(Cl)cc1` [Chlorhexidine, reference compound] as the molecule, how does the “Reduction of bacterial burden (CFU counts)” value [2] read?
**A.** significantly reduced bacterial burden

**Q.** `N=C(N)NCCC[C@H](NC(=O)[C@H](Cc1c[nH]c2ccccc12)NC(=O)[C@H](CCC(N)=O)NC(=O)[C@H](Cc1c[nH]c2ccccc12)NC(=O)[C@H](CCCNC(=N)N)NC(=O)[C@@H](N)CCCNC(=N)N)C(=O)NCC(CNC(=O)[C@H](CCCNC(=N)N)NC(=O)[C@H](Cc1c[nH]c2ccccc12)NC(=O)[C@H](CCC(N)=O)NC(=O)[C@H](Cc1c[nH]c2ccccc12)NC(=O)[C@H](CCCNC(=N)N)NC(=O)[C@@H](N)CCCNC(=N)N)OCC(=O)NCCCCCC(=O)N[C@@H](CSSC[C@H](NC(=O)CCCCCNC(=O)COC(CNC(=O)[C@H](CCCNC(=N)N)NC(=O)[C@H](Cc1c[nH]c2ccccc12)NC(=O)[C@H](CCC(N)=O)NC(=O)[C@H](Cc1c[nH]c2ccccc12)NC(=O)[C@H](CCCNC(=N)N)NC(=O)[C@@H](N)CCCNC(=N)N)CNC(=O)[C@H](CCCNC(=N)N)NC(=O)[C@H](Cc1c[nH]c2ccccc12)NC(=O)[C@H](CCC(N)=O)NC(=O)[C@H](Cc1c[nH]c2ccccc12)NC(=O)[C@H](CCCNC(=N)N)NC(=O)[C@@H](N)CCCNC(=N)N)C(N)=O)C(N)=O` (some centres unmarked) [LBT-2] was tested. Which LC99.9 ([3]; JAR060131, 18 h) did it give?
**A.** 0.47 µM

**Q.** `CC[C@H](C)[C@H](NC(=O)[C@H](CCCCN)NC(=O)[C@H](CCC(=O)O)NC(=O)[C@H](CCCCN)NC(=O)[C@H](CO)NC(=O)[C@H](CCCCN)NC(=O)[C@H](CCCNC(=N)N)NC(=O)[C@H](Cc1ccccc1)NC(=O)[C@H](Cc1ccccc1)NC(=O)[C@H](CC(=O)O)NC(=O)CNC(=O)[C@H](CC(C)C)NC(=O)[C@@H](N)CC(C)C)C(=O)NCC(=O)N[C@@H](CCCCN)C(=O)N[C@@H](CCC(=O)O)C(=O)N[C@@H](Cc1ccccc1)C(=O)N[C@@H](CCCCN)C(=O)N[C@@H](CCCNC(=N)N)C(=O)N[C@H](C(=O)N[C@H](C(=O)N[C@@H](CCC(N)=O)C(=O)N[C@@H](CCCNC(=N)N)C(=O)N[C@H](C(=O)N[C@@H](CCCCN)C(=O)N[C@@H](CC(=O)O)C(=O)N[C@@H](Cc1ccccc1)C(=O)N[C@@H](CC(C)C)C(=O)N[C@@H](CCCNC(=N)N)C(=O)N[C@@H](CC(N)=O)C(=O)N[C@@H](CC(C)C)C(=O)N[C@H](C(=O)N1CCC[C@H]1C(=O)N[C@@H](CCCNC(=N)N)C(=O)N[C@H](C(=O)N[C@@H](CCC(=O)O)C(=O)N[C@@H](CO)C(=O)O)[C@@H](C)O)C(C)C)[C@@H](C)CC)C(C)C)[C@@H](C)CC` [LL-37, reference compound] was tested. Which “Cytotoxicity, LDH leakage” value [4, 10] did it give?
**A.** 7.5 µM

**Q.** What about the “Cytotoxicity, Metabolic activity” value [4, 11] of the same molecule?
**A.** 15 µM

**Q.** And the “Cytotoxicity threshold (tolerance), WST-1 and LDH” value ([4]; fibroblasts, 24 h)?
**A.** 7.5 to 15 µM

**Q.** And the “Cytotoxicity, LDH leakage” value [5, 10]?
**A.** 15 µM

**Q.** And the “Cytotoxicity, Metabolic activity” value [5, 11]?
**A.** 15 µM

**Q.** What about the “Cytotoxicity threshold (tolerance), WST-1 and LDH” value ([5]; keratinocytes, 24 h) of the same molecule?
**A.** 15 µM

**Q.** And the “Percentage of wound closure” value ([1]; versus no treatment)?
**A.** significant wound closure

**Q.** What about the “Macrophage reduction of intracellular S. aureus burden 24 h post-phagocytosis” value [6] of the same molecule?
**A.** significantly enhanced

**Q.** And the LC99.9 ([3]; 50% pooled human plasma in RPMI, 18 h, 37 °C, median of three independent experiments)?
**A.** 60 µM

**Q.** What about the LC99.9 ([3]; RPMI, 18 h, 37 °C, 1 × 10^6 CFU/mL, median of three independent experiments) of the same molecule?
**A.** 1.88 µM

**Q.** What about the LC99.9 ([7]; 50% pooled human plasma) of the same molecule?
**A.** > 120 µM and >120 µM

**Q.** And the LC99.9 ([7]; RPMI)?
**A.** >120 µM

**Q.** What about the “TNFα induction by peptide alone” value [8] of the same molecule?
**A.** minimal but significant

**Q.** What about the “Hemolysis at the highest concentration tested” value ([9]; 60 µM, human erythrocytes) of the same molecule?
**A.** non-hemolytic

**Q.** And the “Hemolytic concentration (HC) < 30%” value ([9]; 1% human erythrocytes in PBS, 37 °C, absorbance 540 nm, 30% lysis threshold, peptides up to 60 µM, triplicate, single donor)?
**A.** >60 µM
